# Results taken from paper PMC7269513 (Antimicrobial Agents and Chemotherapy, 2020).
# “And” between values parts separate entries of the source, which are not always exact repeats. Identical values can stand only once.
# What was measured:
# KPC-2 [1] = target: T1, KPC-2 (Klebsiella pneumoniae, UniProt Q9F663); experiment: IC50 of beta-lactamase inhibition (nitrocefin hydrolysis); assay type: biochemical; conditions: KPC-2, class A; substrate nitrocefin; 10 min preincubation at 37°C; read-out: IC50 (nM) of drug
# CTX-M-14 = CTX-M-14 (Escherichia coli, UniProt Q9L5C7); experiment: as above; assay type: biochemical; conditions: read-out: IC50 (nM) of drug
# SHV-12 [2] = target: T2, SHV-12 (Klebsiella pneumoniae, UniProt P0AD64, E235K/G234S/L31Q); experiment: as above; assay type: biochemical; conditions: read-out: IC50 (nM) of drug
# CTX-M-15 [3] = target: T3, CTX-M-15 (Escherichia coli, UniProt Q9EXV5); experiment: as above; assay type: biochemical; conditions: read-out: IC50 (nM) of drug
# Experimental: (§1) […]; Initial rates of reaction were calculated and exported to Prism software to calculate IC50 values using the “dose-response—inhibition, variable slope (four parameters)” equation. Ki values were calculated by the method of Waley ([31]). This method was previously used to calculate Ki values for boronic fast-on–fast-off BLIs.
# P99 [4] = target: T4, P99 (Enterobacter cloacae, UniProt P05364); experiment: as above; assay type: biochemical; conditions: P99, class C; substrate nitrocefin; 10 min preincubation at 37°C; read-out: IC50 (nM) of drug
# Experimental: as §1
# OXA-48 [5] = target: T5, OXA-48 (Klebsiella pneumoniae, UniProt Q6XEC0); experiment: as above; assay type: biochemical, Enterobacteriaceae; conditions: read-out: IC50 (nM) of drug
# OXA-23 [6] = target: T6, OXA-23 (Acinetobacter baumannii, UniProt Q9L4P2); experiment: as above; assay type: biochemical; conditions: read-out: IC50 (nM) of drug
# VIM-1 [7] = target: T7, VIM-1 (Pseudomonas aeruginosa, UniProt A0A0F7KYQ8); experiment: as above; assay type: biochemical; conditions: read-out: IC50 (nM) of drug
# IMP-1 [8] = target: T8, IMP-1 (Serratia marcescens, UniProt P52699); experiment: IC50 of beta-lactamase inhibition (imipenem hydrolysis); assay type: biochemical
# SHV-12 [9] = target: T2, SHV-12; experiment: biochemical; conditions: derived from the ratio of koff and k2/K
# CTX-M-15 [10] = target: T3, CTX-M-15; experiment: koff of enzyme activity recovery, jump dilution method; assay type: biochemical; conditions: derived from the ratio of koff and k2/K
# Experimental: (§2) Enzyme at a 1 μM concentration in buffer A was mixed with BLI at an 8-fold-higher concentration than its stoichiometry ratio (determined in preliminary stoichiometry experiments). […].
# KPC-2 [11] = target: T1, KPC-2; experiment: as above; assay type: biochemical; conditions: derived from the ratio of koff and k2/K
# Experimental: as §2
# KPC-3 [12] = target: T9, KPC-3 (Klebsiella pneumoniae, UniProt Q9F663, H272Y); experiment: as above; assay type: biochemical; conditions: derived from the ratio of koff and k2/K
# Experimental: as §2
# OXA-23 [13] = target: T6, OXA-23; experiment: as above; assay type: biochemical; conditions: derived from the ratio of koff and k2/K
# Experimental: as §2
# OXA-24 [14] = target: T10, OXA-24 (Acinetobacter baumannii, UniProt Q8RLA6); experiment: as above; assay type: biochemical; conditions: derived from the ratio of koff and k2/K
# Experimental: as §2
# OXA-58 [15] = target: T11, OXA-58 (Acinetobacter baumannii, UniProt Q2TR58); experiment: as above; assay type: biochemical; conditions: derived from the ratio of koff and k2/K
# Experimental: as §2
# P99 [16] = target: T4, P99; experiment: as above; assay type: biochemical; conditions: derived from the ratio of koff and k2/K
# Experimental: as §2
# SME-2 [17] = target: T12, SME-2 (Serratia marcescens, UniProt P52682, V207Q); experiment: as above; assay type: biochemical; conditions: derived from the ratio of koff and k2/K
# Experimental: as §2
# OXA-48 [18] = target: T5, OXA-48; experiment: as above; assay type: biochemical, Enterobacteriaceae; conditions: derived from the ratio of koff and k2/K
# Experimental: as §2
# BKC-1 = BKC-1 (Klebsiella pneumoniae, UniProt A0A0F6QEY8); experiment: Stoichiometry of beta-lactamase inhibition; assay type: biochemical; conditions: minimal BLI/enzyme ratio reducing enzyme activity by at least 90%
# Experimental: (§3) Purified enzyme at 1 μM concentration in buffer A was mixed with BLI at a BLI/enzyme ratio varying from 128 to 0.0625. […]. Stoichiometry of inhibition was determined as a minimal BLI/enzyme ratio reducing enzyme activity by at least 90%.
# FRI-1 = FRI-1 (Enterobacter cloacae, UniProt A0A0M5L4T8); experiment: Stoichiometry of beta-lactamase inhibition; assay type: biochemical; conditions: minimal BLI/enzyme ratio reducing enzyme activity by at least 90%
# Experimental: as §3
# KPC-3 [19] = target: T9, KPC-3; experiment: Stoichiometry of beta-lactamase inhibition; assay type: biochemical; conditions: minimal BLI/enzyme ratio reducing enzyme activity by at least 90%
# Experimental: as §3
# SHV-12 [20] = target: T2, SHV-12; experiment: Stoichiometry of beta-lactamase inhibition; assay type: biochemical; conditions: minimal BLI/enzyme ratio reducing enzyme activity by at least 90%
# Experimental: as §3
# SME-2 [21] = target: T12, SME-2; experiment: Stoichiometry of beta-lactamase inhibition; assay type: biochemical; conditions: minimal BLI/enzyme ratio reducing enzyme activity by at least 90%
# Experimental: as §3
# TEM-43 = TEM-43 (Escherichia coli, UniProt P62593, E102K/M180T/R162H, species not given); experiment: Stoichiometry of beta-lactamase inhibition; assay type: biochemical; conditions: minimal BLI/enzyme ratio reducing enzyme activity by at least 90%
# Experimental: as §3
# CTX-M-15 [22] = target: T3, CTX-M-15; experiment: Stoichiometry of beta-lactamase inhibition; assay type: biochemical; conditions: minimal BLI/enzyme ratio reducing enzyme activity by at least 90%
# Experimental: (§4) […]. Stoichiometry of inhibition was determined as a minimal BLI/enzyme ratio reducing enzyme activity by at least 90%.
# KPC-2 [23] = target: T1, KPC-2; experiment: Stoichiometry of beta-lactamase inhibition; assay type: biochemical; conditions: minimal BLI/enzyme ratio reducing enzyme activity by at least 90%
# Experimental: as §4
# OXA-23 [24] = target: T6, OXA-23; experiment: Stoichiometry of beta-lactamase inhibition; assay type: biochemical; conditions: minimal BLI/enzyme ratio reducing enzyme activity by at least 90%
# Experimental: as §4
# OXA-24 [25] = target: T10, OXA-24; experiment: Stoichiometry of beta-lactamase inhibition; assay type: biochemical; conditions: minimal BLI/enzyme ratio reducing enzyme activity by at least 90%
# Experimental: as §4
# OXA-48 [26] = target: T5, OXA-48; experiment: Stoichiometry of beta-lactamase inhibition; assay type: biochemical; conditions: minimal BLI/enzyme ratio reducing enzyme activity by at least 90%
# Experimental: as §4
# OXA-58 [27] = target: T11, OXA-58; experiment: Stoichiometry of beta-lactamase inhibition; assay type: biochemical; conditions: minimal BLI/enzyme ratio reducing enzyme activity by at least 90%
# Experimental: as §4
# P99 [28] = target: T4, P99; experiment: Stoichiometry of beta-lactamase inhibition; assay type: biochemical; conditions: minimal BLI/enzyme ratio reducing enzyme activity by at least 90%
# Experimental: as §4
# IMP-1 [29] = target: T8, IMP-1; experiment: Ki of competitive MBL inhibition (method of Waley); assay type: biochemical
# Experimental: as §1
# VIM-1 [30] = target: T7, VIM-1; experiment: Ki of competitive MBL inhibition (method of Waley); assay type: biochemical
# Experimental: as §1
# [31] = test system: strain producing cloned L1 from Stenotrophomonas maltophilia; conditions: strain producing cloned L1 (B3 subclass MBL); cited from earlier work
# [32] = Kd values for MBLs were based on Kis
smiles,measurement,setting,value
O=C(O)c1c(F)ccc2c1OB(O)[C@@H]1C[C@H]21 [QPX7728],IC50,KPC-2 [1],2.9 ± 0.4 nM
same,IC50,CTX-M-14,0.94 ± 0.2 nM
same,IC50,SHV-12 [2],1.9 ± 0.6 nM
same,IC50,CTX-M-15 [3],1.2 ± 0.1 nM
same,IC50,P99 [4],~22 nM and 22 nM
same,IC50,OXA-48 [5],1 nM and 1.1 nM
same,IC50,OXA-23 [6],1 nM and 1.2 nM
same,IC50,VIM-1 [7],14 ± 4 nM
same,IC50,IMP-1 [8],610 ± 70 nM
same,Kd,SHV-12 [9],28 ± 4 nM
same,Kd,CTX-M-15 [10],0.11 ± 0.02 nM
same,Kd,KPC-2 [11],0.25 ± 0.03 nM
same,Kd,KPC-3 [12],0.31 ± 0.06 nM
same,Kd,OXA-23 [13],1.6 ± 0.2 nM
same,Kd,OXA-24 [14],0.58 ± 0.1 nM
same,Kd,OXA-58 [15],3.2 ± 0.3 nM
same,Kd,P99 [16],0.53 ± 0.06 nM
same,Kd,SME-2 [17],0.15 ± 0.02 nM
same,Kd,OXA-48 [18],0.13 ± 0.01 nM
same,Stoichiometry,BKC-1,1
same,Stoichiometry,FRI-1,1
same,Stoichiometry,KPC-3 [19],1
same,Stoichiometry,SHV-12 [20],1
same,Stoichiometry,SME-2 [21],1
same,Stoichiometry,TEM-43,1
same,Stoichiometry,CTX-M-15 [22],1
same,Stoichiometry,KPC-2 [23],1
same,Stoichiometry,OXA-23 [24],2
same,Stoichiometry,OXA-24 [25],1
same,Stoichiometry,OXA-48 [26],1
same,Stoichiometry,OXA-58 [27],1
same,Stoichiometry,P99 [28],1
same,Kd,IMP-1 [29]; [32],240 ± 30 nM
same,Ki,"IMP-1 [29]; competitive, fast-on–fast-off",240 ± 30 nM
same,Kd,VIM-1 [30]; [32],7.5 ± 2.1 nM
same,Ki,"VIM-1 [30]; competitive, fast-on–fast-off",7.5 ± 2.1 nM
same,ability to reduce MICs of meropenem and ceftazidime,[31],inability
